Assay results reported in US20240270762A1, “PENICILLIN-BINDING PROTEIN INHIBITORS” (priority 2021, published 2024).
Values after ≈ are worked out from the molar mass of the structure shown. Where two headings read alike, the source gives them in different places.

Assays:
P. aeruginosa CDC-0090 = test: microbe, parasite or virus in culture; format: cell-based; details: Pseudomonas aeruginosa, CDC0090, read-out: Minimum inhibitory concentration, P. aeruginosa CDC-0090
A. baumannii CDC-0033 = test: microbe, parasite or virus in culture; format: cell-based; details: Acinetobacter baumannii, CDC0033, read-out: MIC, A. baumannii CDC-0033
A. baumannii ATCC 17978 = test: microbe, parasite or virus in culture; format: cell-based; details: Acinetobacter baumannii, ATCC17978, read-out: MIC, A. baumannii ATCC 17978
N. gonorrhoeae WHO L = test: Liquid broth MIC in Fastidious broth; details: Neisseria gonorrhoeae
[1] = test system: N. gonorrhoeae ATCC 49226; test: Liquid broth MIC in Fastidious broth; details: Neisseria gonorrhoeae
[2] = target: T1, PBP3 from Escherichia coli (K-12) (Escherichia coli, UniProt P0AD68); test: Bocillin-FL fluorescence polarization competition binding, E. coli PBP3
T1 construct: made in house
Procedure, shortened: (§1)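 Purified PBP was preincubated with inhibitor (E. coli PBP3 1.5 μM, 30 min; P. aeruginosa PBP3 0.75 μM, A. baumannii PBP3 0.2 μM and PBP1a 1 μM, 15 min), then Bocillin-FL (0.1 μM; 0.05 μM for PBP1a) added and FP read up to 60 min. EC50 = 50% loss of bound probe.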

[3] = target: T2, PBP3 from Pseudomonas aeruginosa (PAO1) (Pseudomonas aeruginosa, UniProt G3XD46); test: Bocillin-FL fluorescence polarization competition binding, P. aeruginosa PBP3; details: Binding affinity to P. aeruginosa PBP3; fluorescence polarization competition binding assay using Bocillin-FL; read-out: P. aeruginosa PBP3 Potency
T2 construct: made in house
Procedure, shortened: as §1

[4] = target: T3, PBP1a from Acinetobacter baumannii (ATCC 19606) (Acinetobacter baumannii, UniProt A0ABX6CK30); test: Bocillin-FL fluorescence polarization competition binding, A. baumannii PBP1a; details: fluorescence polarization competition binding assay using Bocillin-FL; read-out: A. baumannii PBP1a Potency
T3 sequence (A0ABX6CK30 1-851): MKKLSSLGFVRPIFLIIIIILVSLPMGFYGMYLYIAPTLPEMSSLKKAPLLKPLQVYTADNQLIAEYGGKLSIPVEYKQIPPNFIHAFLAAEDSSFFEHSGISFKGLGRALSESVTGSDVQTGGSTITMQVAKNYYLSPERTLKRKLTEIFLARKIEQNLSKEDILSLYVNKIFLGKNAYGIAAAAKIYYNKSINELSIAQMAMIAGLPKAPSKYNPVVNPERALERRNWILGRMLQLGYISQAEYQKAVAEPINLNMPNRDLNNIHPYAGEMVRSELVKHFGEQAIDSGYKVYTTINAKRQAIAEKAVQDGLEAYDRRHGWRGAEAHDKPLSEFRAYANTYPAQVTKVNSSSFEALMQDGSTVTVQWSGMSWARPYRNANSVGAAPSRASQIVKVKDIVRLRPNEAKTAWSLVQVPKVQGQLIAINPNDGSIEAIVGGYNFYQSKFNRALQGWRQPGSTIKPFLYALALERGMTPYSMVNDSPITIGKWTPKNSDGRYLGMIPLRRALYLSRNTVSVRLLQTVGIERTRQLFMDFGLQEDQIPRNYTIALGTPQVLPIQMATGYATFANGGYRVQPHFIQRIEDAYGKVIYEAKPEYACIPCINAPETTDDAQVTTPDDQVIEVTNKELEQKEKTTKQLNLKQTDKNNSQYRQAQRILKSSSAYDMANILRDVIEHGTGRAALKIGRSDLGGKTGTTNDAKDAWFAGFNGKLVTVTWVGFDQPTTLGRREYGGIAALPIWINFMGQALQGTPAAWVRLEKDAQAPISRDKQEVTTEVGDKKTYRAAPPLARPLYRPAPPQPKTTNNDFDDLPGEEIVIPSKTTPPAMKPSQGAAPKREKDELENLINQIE
Procedure, shortened: as §1

[5] = read-out: Minimum Inhibitory Concentration, WHO L
[6] = ATCC49226, read-out: Minimum Inhibitory Concentration, ATCC 49226
[7] = read-out: Minimum Inhibitory Concentration (MIC), N. gonorrhoeae WHO L
[8] = ATCC49226, read-out: Minimum Inhibitory Concentration (MIC), N. gonorrhoeae ATCC 49226

T2 sequence (G3XD46 whole entry): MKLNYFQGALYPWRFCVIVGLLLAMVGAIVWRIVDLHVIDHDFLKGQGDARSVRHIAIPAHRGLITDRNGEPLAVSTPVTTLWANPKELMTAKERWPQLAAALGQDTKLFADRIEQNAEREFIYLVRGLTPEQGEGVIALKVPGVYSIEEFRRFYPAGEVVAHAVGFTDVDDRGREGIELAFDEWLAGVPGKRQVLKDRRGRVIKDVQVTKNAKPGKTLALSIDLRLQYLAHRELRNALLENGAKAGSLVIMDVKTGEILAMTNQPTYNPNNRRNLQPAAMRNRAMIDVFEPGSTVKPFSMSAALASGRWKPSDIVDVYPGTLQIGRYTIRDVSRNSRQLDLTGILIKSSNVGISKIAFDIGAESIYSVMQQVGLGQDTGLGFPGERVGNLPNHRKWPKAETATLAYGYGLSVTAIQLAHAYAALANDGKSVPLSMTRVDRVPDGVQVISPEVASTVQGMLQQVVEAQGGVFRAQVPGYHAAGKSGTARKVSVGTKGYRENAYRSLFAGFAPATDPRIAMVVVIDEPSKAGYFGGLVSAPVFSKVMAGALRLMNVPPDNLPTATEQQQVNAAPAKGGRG
T1 sequence (P0AD68 1-577): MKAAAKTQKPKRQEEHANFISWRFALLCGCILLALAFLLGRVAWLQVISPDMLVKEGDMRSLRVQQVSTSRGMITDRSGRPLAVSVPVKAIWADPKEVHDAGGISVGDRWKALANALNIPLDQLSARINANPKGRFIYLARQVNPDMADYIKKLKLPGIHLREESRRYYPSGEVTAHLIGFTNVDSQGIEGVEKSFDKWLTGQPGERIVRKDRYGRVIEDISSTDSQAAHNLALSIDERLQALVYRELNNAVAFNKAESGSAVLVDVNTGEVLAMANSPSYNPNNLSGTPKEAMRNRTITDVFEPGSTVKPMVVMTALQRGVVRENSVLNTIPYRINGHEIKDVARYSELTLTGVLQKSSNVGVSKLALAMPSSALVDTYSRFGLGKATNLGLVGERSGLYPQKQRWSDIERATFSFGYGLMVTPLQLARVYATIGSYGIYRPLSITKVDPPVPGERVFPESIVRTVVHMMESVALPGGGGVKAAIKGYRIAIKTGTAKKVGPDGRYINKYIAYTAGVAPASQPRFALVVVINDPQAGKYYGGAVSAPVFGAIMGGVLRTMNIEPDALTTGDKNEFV

Structure (SMILES)	MIC (P. aeruginosa CDC-0090)	MIC (A. baumannii CDC-0033)	MIC (A. baumannii ATCC 17978)	MIC (N. gonorrhoeae WHO L; [5])	MIC [1, 6]	EC50 [2]	IC50 [3]	IC50 [4]	MIC (N. gonorrhoeae WHO L; [7])	MIC [1, 8]
O=C(NCCCN1CCN(C(=O)N[C@H](C(=O)N[C@H]2Cc3ccc(F)c(C(=O)O)c3OB2O)c2cc(F)c(O)c(O)c2Cl)C1=O)c1cccc(O)c1 [Example 254, (R)-3-((S)-2-(2-chloro-5-fluoro-3,4-dihydroxyphenyl)-2-(3-(3-(3-hydroxybenzamido)propyl)-2-oxoimidazolidine-1-carboxamido)acetamido)-7-fluoro-2-hydroxy-3,4-dihydro-2H-benzo[e][1,2]oxaborinine-8-carboxylic acid]	> 128 µg/mL	32 to 64 µg/mL (≈ 43.7 to 87.4 µM)	2 to 4 µg/mL (≈ 2.73 to 5.47 µM)	> 64 µg/mL	> 64 µg/mL	50 to 250 µM	50 to 250 µM	> 250 µM		
O=C(O)c1c(F)ccc2c1OB(O)[C@@H](NC(=O)C(NC(=O)N1CCN(S(=O)(=O)CCNC(=O)[C@@H]3CCCN3)C1=O)c1cc(F)c(O)c(O)c1Cl)C2 (stereo partly drawn) [Example 265, (3R)-3-(2-(2-chloro-5-fluoro-3,4-dihydroxyphenyl)-2-(2-oxo-3-((2-((S)-pyrrolidine-2-carboxamido)ethyl)sulfonyl)imidazolidine-1-carboxamido)acetamido)-7-fluoro-2-hydroxy-3,4-dihydro-2H-benzo[e][1,2]oxaborinine-8-carboxylic acid]	2 to 4 µg/mL (≈ 2.64 to 5.27 µM)	8 to 16 µg/mL (≈ 10.5 to 21.1 µM)	< 1 µg/mL	> 64 µg/mL	16 to 32 µg/mL (≈ 21.1 to 42.2 µM)	10 to 50 µM	< 10 µM	> 250 µM		
O=C(NCCCN1CCN(C(=O)N[C@@H](C(=O)N[C@H]2Cc3ccc(F)c(C(=O)O)c3OB2O)c2cc(F)c(O)c(O)c2Cl)C1=O)c1cccc(O)c1 [Example 255, (R)-3-((R)-2-(2-chloro-5-fluoro-3,4-dihydroxyphenyl)-2-(3-(3-(3-hydroxybenzamido)propyl)-2-oxoimidazolidine-1-carboxamido)acetamido)-7-fluoro-2-hydroxy-3,4-dihydro-2H-benzo[e][1,2]oxaborinine-8-carboxylic acid]	< 1 µg/mL	2 to 4 µg/mL (≈ 2.73 to 5.47 µM)	< 1 µg/mL	> 64 µg/mL	16 to 32 µg/mL (≈ 21.9 to 43.7 µM)	< 10 µM	< 10 µM	> 250 µM		
O=C(NCCCS(=O)(=O)N1CCN(C(=O)NC(C(=O)N[C@H]2Cc3ccc(F)c(C(=O)O)c3OB2O)c2cc(F)c(O)c(O)c2Cl)C1=O)c1ccc(O)cc1 (stereo partly drawn) [Example 269, (3R)-3-(2-(2-chloro-5-fluoro-3,4-dihydroxyphenyl)-2-(3-((3-(4-hydroxybenzamido)propyl)sulfonyl)-2-oxoimidazolidine-1-carboxamido)acetamido)-7-fluoro-2-hydroxy-3,4-dihydro-2H-benzo[e][1,2]oxaborinine-8-carboxylic acid]	2 to 4 µg/mL (≈ 2.51 to 5.03 µM)	8 to 16 µg/mL (≈ 10.1 to 20.1 µM)	< 1 µg/mL	> 64 µg/mL	16 to 32 µg/mL (≈ 20.1 to 40.2 µM)	< 10 µM	< 10 µM	> 250 µM		
O=C(NCCN1CCN(C(=O)NC(C(=O)N[C@H]2Cc3ccc(F)c(C(=O)O)c3OB2O)c2cc(F)c(O)c(O)c2Cl)C(=O)C1=O)c1cccnc1 (stereo partly drawn) [Example 217, (3R)-3-(2-(2-chloro-5-fluoro-3,4-dihydroxyphenyl)-2-(4-(2-(nicotinamido)ethyl)-2,3-dioxopiperazine-1-carboxamido)acetamido)-7-fluoro-2-hydroxy-3,4-dihydro-2H-benzo[e][1,2]oxaborinine-8-carboxylic acid]	2 to 4 µg/mL (≈ 2.74 to 5.47 µM)	8 to 16 µg/mL (≈ 10.9 to 21.9 µM)	< 1 µg/mL			< 10 µM	< 10 µM	> 250 µM	> 64 µg/mL	16 to 32 µg/mL (≈ 21.9 to 43.8 µM)
O=C(NCCCN1CCN(C(=O)NC(C(=O)N[C@H]2Cc3ccc(F)c(C(=O)O)c3OB2O)c2cc(F)c(O)c(O)c2Cl)C1=O)Nc1cccnc1 (stereo partly drawn) [Example 259, (3R)-3-(2-(2-chloro-5-fluoro-3,4-dihydroxyphenyl)-2-(2-oxo-3-(3-(3-(pyridin-3-yl)ureido)propyl)imidazolidine-1-carboxamido)acetamido)-7-fluoro-2-hydroxy-3,4-dihydro-2H-benzo[e][1,2]oxaborinine-8-carboxylic acid]	< 1 µg/mL	2 to 4 µg/mL (≈ 2.73 to 5.47 µM)	< 1 µg/mL	> 64 µg/mL	16 to 32 µg/mL (≈ 21.9 to 43.7 µM)	< 10 µM	< 10 µM	> 250 µM		
O=C(NCCCN1CCN(C(=O)N[C@H](C(=O)N[C@H]2Cc3ccc(F)c(C(=O)O)c3OB2O)c2cc(F)c(O)c(O)c2Cl)C1=O)c1ccccc1 [Example 252, (R)-3-((S)-2-(3-(3-benzamidopropyl)-2-oxoimidazolidine-1-carboxamido)-2-(2-chloro-5-fluoro-3,4-dihydroxyphenyl)acetamido)-7-fluoro-2-hydroxy-3,4-dihydro-2H-benzo[e][1,2]oxaborinine-8-carboxylic acid]	> 128 µg/mL	> 128 µg/mL	8 to 16 µg/mL (≈ 11.2 to 22.4 µM)	> 64 µg/mL	> 64 µg/mL	> 250 µM	> 250 µM	> 250 µM		
O=C(NCCN1CCN(C(=O)NC(C(=O)N[C@H]2Cc3ccc(F)c(C(=O)O)c3OB2O)c2cc(F)c(O)c(O)c2Cl)C(=O)C1=O)c1nccs1 (stereo partly drawn) [Example 218, (3R)-3-(2-(2-chloro-5-fluoro-3,4-dihydroxyphenyl)-2-(2,3-dioxo-4-(2-(thiazole-2-carboxamido)ethyl)piperazine-1-carboxamido)acetamido)-7-fluoro-2-hydroxy-3,4-dihydro-2H-benzo[e][1,2]oxaborinine-8-carboxylic acid]	< 1 µg/mL	8 to 16 µg/mL (≈ 10.9 to 21.7 µM)	< 1 µg/mL			< 10 µM	< 10 µM	> 250 µM	> 64 µg/mL	16 to 32 µg/mL (≈ 21.7 to 43.4 µM)
O=C(CN1CCN(C(=O)N[C@@H](C(=O)N[C@H]2Cc3ccc(F)c(C(=O)O)c3OB2O)c2cc(F)c(O)c(O)c2Cl)C(=O)C1=O)NCc1ccncc1 [Example 239, (R)-3-((R)-2-(2-chloro-5-fluoro-3,4-dihydroxyphenyl)-2-(2,3-dioxo-4-(2-oxo-2-((pyridin-4-ylmethyl)amino)ethyl)piperazine-1-carboxamido)acetamido)-7-fluoro-2-hydroxy-3,4-dihydro-2H-benzo[e][1,2]oxaborinine-8-carboxylic acid]	2 to 4 µg/mL (≈ 2.74 to 5.47 µM)	8 to 16 µg/mL (≈ 10.9 to 21.9 µM)	< 1 µg/mL			< 10 µM	< 10 µM	> 250 µM	> 64 µg/mL	16 to 32 µg/mL (≈ 21.9 to 43.8 µM)
O=C(NCCN1CCN(C(=O)NC(C(=O)N[C@H]2Cc3ccc(F)c(C(=O)O)c3OB2O)c2cc(F)c(O)c(O)c2Cl)C(=O)C1=O)c1ccc(O)cc1 (stereo partly drawn) [Example 214, (3R)-3-(2-(2-chloro-5-fluoro-3,4-dihydroxyphenyl)-2-(4-(2-(4-hydroxybenzamido)ethyl)-2,3-dioxopiperazine-1-carboxamido)acetamido)-7-fluoro-2-hydroxy-3,4-dihydro-2H-benzo[e][1,2]oxaborinine-8-carboxylic acid]	< 1 µg/mL	8 to 16 µg/mL (≈ 10.7 to 21.5 µM)	< 1 µg/mL			< 10 µM	< 10 µM	> 250 µM	> 64 µg/mL	4 to 8 µg/mL (≈ 5.36 to 10.7 µM)
